1 compound from article PMC7848910, “Multimodularity of a GH10 Xylanase Found in the Termite Gut Metagenome” (Applied and Environmental Microbiology, 2021) can be followed below.

Assay in all cases: microscale thermophoresis, initial fluorescence analysis, RED-NHS labelled protein
What all share (type): binding
Holding throughout (conditions): 50 mM phosphate pH 7, 0.05% Pluronic F-127

Assay [1] has as its target T1, Pm25ΔCBMs (M6; M7 = Pm25ΔCBMs E546A) (termite gut metagenome, UniProt S0DFK9, E546A, form not given).
T1 construct: gene Pm25; Pm25 without its two inserted CBM4s (catalytic domain 66-151 and 514-753); synthetic gene, E. coli Tuner(DE3), TALON-purified

The next assay addresses T2, CBM4-1 (M8) (termite gut metagenome, UniProt S0DFK9).
T2 construct: gene Pm25; isolated CBM4-1 domain, L167-L320 by primer name (domain 161-321), pET28a(+), E. coli Tuner(DE3), TALON-purified

The next assay deals with T3, CBM4-2 (M9) (termite gut metagenome, UniProt S0DFK9).
T3 construct: gene Pm25; isolated CBM4-2 domain, D332-D484 by primer name (domain 324-486), pET28a(+), E. coli Tuner(DE3), TALON-purified
T3 sequence (S0DFK9 332-484 limits assumed): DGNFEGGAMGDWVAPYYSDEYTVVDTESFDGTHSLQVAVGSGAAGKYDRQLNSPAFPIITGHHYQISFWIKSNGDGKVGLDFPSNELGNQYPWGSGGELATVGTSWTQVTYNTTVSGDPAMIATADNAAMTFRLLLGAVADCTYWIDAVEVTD

T1 sequence (S0DFK9 30-160 limits assumed, stated change not applied): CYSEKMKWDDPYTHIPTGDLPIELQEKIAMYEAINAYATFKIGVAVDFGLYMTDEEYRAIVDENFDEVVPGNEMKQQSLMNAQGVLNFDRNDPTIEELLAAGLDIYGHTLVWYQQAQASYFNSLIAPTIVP
T1 sequence (S0DFK9 487-776 E546A limits assumed): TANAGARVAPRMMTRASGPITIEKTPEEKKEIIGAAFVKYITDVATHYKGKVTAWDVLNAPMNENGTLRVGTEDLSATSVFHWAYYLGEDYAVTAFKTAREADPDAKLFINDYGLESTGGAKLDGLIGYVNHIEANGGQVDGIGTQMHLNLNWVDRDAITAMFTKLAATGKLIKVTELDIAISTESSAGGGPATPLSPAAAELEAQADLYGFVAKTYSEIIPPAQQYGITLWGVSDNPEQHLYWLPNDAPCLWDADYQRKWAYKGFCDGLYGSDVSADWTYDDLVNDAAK
T2 sequence (S0DFK9 167-320 limits assumed): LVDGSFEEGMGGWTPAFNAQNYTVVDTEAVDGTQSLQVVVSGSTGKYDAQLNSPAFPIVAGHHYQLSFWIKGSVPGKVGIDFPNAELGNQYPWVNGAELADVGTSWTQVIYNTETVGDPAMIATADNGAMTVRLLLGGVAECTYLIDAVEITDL

As for `OC1OC[C@@H](O[C@@H]2OC[C@@H](O[C@@H]3OC[C@@H](O[C@@H]4OC[C@@H](O[C@@H]5OC[C@@H](O[C@@H]6OC[C@@H](O)[C@H](O)[C@H]6O)[C@H](O)[C@H]5O)[C@H](O)[C@H]4O)[C@H](O)[C@H]3O)[C@H](O)[C@H]2O)[C@H](O)[C@H]1O` (stereo partly drawn) [X6, xylohexaose], the figures for the Kd (in assay [1]; on CBM4-1 (M8); on CBM4-2 (M9)) were 1500 ± 200 µM, 4700 ± 400 µM and 1800 ± 100 µM, respectively.
